The values that follow come from US20240336571A1, “NOVEL CYCLOPROPYL COMPOUNDS” (ICAGEN, LLC, priority 2021, published 2024).

For the experiment, the target named is human Kv7.2 (Homo sapiens (Human), UniProt O43526). The experiment in a line: SyncroPatch 384 electrophysiology, activation of Kv7.2 in CHO cells. Type of experiment: cell-based. The conditions noted are these: for EC50: CHO cells stably expressing human Kv7.2, potassium current at -90 mV repolarizing step, in presence of zinc pyrithione; for Emax: CHO. On the procedure: The potency of Kv7 potentiators was determined using the SyncroPatch 384 (Nanion) high throughput electrophysiology platform.
CHO cells stably expressing either human Kv7.2, Kv7.4 or Kv7.5/7.3 under a constitutive CMV promoter were used for these studies. Cells were maintained in F12 Hams+1 mM L-glutamine (Hyclone) supplemented with 10% FBS (Sigma), 0.3×NEAA (Non-essential Gamino-acids) and 400 ug/ml G418 at 37° C. in 5% CO2. Cells were cultured in T-225 flasks (Nunc) for 2-3 days to reach 85-95% confluence prior to electrophysiological recording.
Earle's balanced salt solution (in mM): 135 NaCl, 5.4 KCl, 5 Glucose, 2 CaCl2, 1 MgCl2, 5 HEPES, pH 7.4. Seal enhancer solution (in mM): 90 NaCl, 3 KCl, 35 CaCl2, 10 MgCl2, 10 HEPES, pH 7.4. Extracellular recording solution (in mM): 71 NaCl, 70 NMDG, 13 KCl, 5 Glucose, 2 CaCl2, 1 MgCl2, 10 HEPES, pH 7.4. Intracellular recording solution (in mM): 130 KF, 20 KCl, 4 EGTA, 10 HEPES, 2 EDTA, 0.01 Escin, pH 7.2.
Cells were harvested for electrophysiological recording upon reaching appropriate confluence. Cells were first washed in DPBS (Hyclone, Cat #SH30028.03) and then 2 ml of Accutase (MP Biomedicals #1000449) was added at 28° C. until ˜90% of cells were suspended. F12 HAM's media+1 mM L-glutamine (Hyclone, SH30026.02) was then added to the flask to dilute the accutase. Cells were then triturated until a single cell suspension was achieved, a cell count was performed, and cells were centrifuged for 2 min. at 1,000 rpm. Media was then aspirated, and cells were resuspended in Earle's balanced salt solution to a concentration of 0.75×10^6 cells/ml and allowed to recover for 25 min at 10° C.
At the beginning of each assay, 20 μl of cell suspension was dispensed into each well of a multi-hole 384-well SyncroPatch chip by the onboard pipettor. Cell sealing was initiated, and seal enhancer solution was added to facilitate seal formation. Upon completion of sealing, cells were washed 3 times with extracellular recording solution and the assay voltage protocol was started. Human Kv7.2, Kv7.4 or Kv7.5/7.3 channels were evaluated using a voltage protocol in which cells were voltage-clamped at a holding potential of −60 mV. Potassium currents were continuously activated with a series of three voltage steps to −30 mV for 3 seconds, 40 mV for 1 second and −90 mV for 4 seconds with 12 seconds between successive voltage sweeps. Potassium currents were measured from the −90 mV repolarizing step. Baseline current was assessed for 3.5 minutes prior to the addition of 5.6 μM zinc pyrithione (1 μM for Kv7.4). Kv7.2, Kv7.4 or Kv7.5/7.3 current in the presence of zinc pyrithione was acquired over five minutes to allow channels to reach steady state activity prior to addition of test agents. Channel activity was monitored for three minutes preceding the addition of 30 μM ML-213 (3 minutes) to achieve maximum activation. 150 mM TEA with 10 μM XE-991 was applied for 2 minutes to measure the leak current during maximum inhibition of Kv7.2, Kv7.4 or Kv7.5/7.3 channels.
Data were collected on the SyncroPatch platform using PatchControl software (Nanion) and processed and analyzed using DataControl Software (Nanion). Percent activation was calculated from potassium current as follows: The average current for the 5 sweeps in the presence of zinc pyrithione immediately preceding test agent addition was taken as the ‘control’ data. Likewise, the average potassium current in the presence of test agents 5 sweeps immediately preceding addition of 30 μM ML-213 was determined for ‘drug’ data. The average potassium current 5 sweeps immediately prior to addition of 150 mM TEA+10 μM XE-991 was determined for ‘max activation’ data while average currents from 5 sweeps immediately following addition of TEA was determined for ‘max inhibition’ data. Percent activation for each of the 384-wells of a sealchip was calculated as ((‘drug’−‘max inhibition’)/(‘max activation’−‘max inhibition’))*100 with Pipeline Pilot (Accelrys). […]

Where [1] appears, read: Kv7.2 activation max %, relative to 30 μM ML-213 max activation.

As usually defined, the EC50 is the concentration needed to bring the measured effect to its halfway point. Usually Emax stands for the size of the effect at its maximum, as opposed to the concentration needed. With `O=C(NCc1ccnc(-n2cccn2)c1)N[C@@H]1C[C@H]1c1ccccc1` (racemic) [Example 12, 1-[(2-pyrazol-1-ylpyridin-4-yl)methyl]-3-[rac-(1R,2S)-2-phenylcyclopropyl]urea], the half-maximal effective concentration (EC50) is 0.67 µM. The Emax under setting [1] is 69%.
Consider “1-[(1S,2R)-2-cyclohexylcyclopropyl]-3-[(2-imidazol-1-ylpyridin-4-yl)methyl]urea [Example 15]”, for which the EC50 stood at 1.57 µM. Further, under setting [1], the “Kv7.2 Emax” value is 56%.
On to `N#Cc1cc(CNC(=O)N[C@@H]2C[C@H]2c2ccccc2)ccn1` (racemic) [Example 8, 1-[(2-cyanopyridin-4-yl)methyl]-3-[rac-(1R,2S)-2-phenylcyclopropyl]urea], for which the concentration for a half-maximal effect (EC50) was 4.18 µM. Further, the Emax under setting [1] was determined as 40%.
The like results for `O=C(NCc1ccnc(OC(F)F)c1)N[C@@H]1C[C@H]1C(F)(F)F` [Example 41, 1-[[2-(difluoromethoxy)pyridin-4-yl]methyl]-3-[(1R,2R)-2-(trifluoromethyl)cyclopropyl]urea] were, in that order, 0.23 µM and 54%.
Regarding `O=C(NCc1ccnc(Oc2ccccc2)c1)N[C@@H]1C[C@H]1c1ccccc1` [Example 34, 1-[(2-phenoxypyridin-4-yl)methyl]-3-[(1R,2S)-2-phenylcyclopropyl]urea], the EC50 is 4.78 µM. Moreover, under setting [1], the maximal response (Emax) is 62%.
The like results for `O=C(NCc1cc(OC(F)F)ncn1)N[C@H]1C[C@@H]1C(F)(F)F` [Example 52, 1-[[6-(difluoromethoxy)pyrimidin-4-yl]methyl]-3-[(1S,2S)-2-(trifluoromethyl)cyclopropyl]urea] were, in that order, 1 µM and 43%.
Turning to `COC[C@@H](Oc1cc(CNC(=O)N[C@@H]2C[C@H]2C(F)(F)F)ccn1)C(F)(F)F` (mixture of isomers) [Example 53, 1-[[2-[(2R)-1,1,1-trifluoro-3-methoxypropan-2-yl]oxypyridin-4-yl]methyl]-3-[rac-(1R,2R)-2-(trifluoromethyl)cyclopropyl]urea], the EC50 came out at 0.36 µM. Also, the Emax under setting [1] stood at 69%.
Turning to `O=C(NCc1ccnc(-n2cccn2)c1)N[C@@H]1C[C@H]1C1CCCCC1` (racemic) [Example 2, 1-[rac-(1R,2S)-2-cyclohexylcyclopropyl]-3-[(2-pyrazol-1-ylpyridin-4-yl)methyl]urea], the EC50 turned out to be 0.57 µM. Further, the maximal effect (Emax) under setting [1] amounted to 84%.
As to `O=C(NCc1ccnc(OC(F)F)n1)N[C@@H]1C[C@H]1C(F)(F)F` [Example 49, 1-[[2-(difluoromethoxy)pyrimidin-4-yl]methyl]-3-[(1R,2R)-2-(trifluoromethyl)cyclopropyl]urea], the half-maximal effective concentration (EC50) was 3.83 µM. Besides, under setting [1], the Emax stood at 42%.
For `O=C(NCc1ccnc(C(F)F)c1)N[C@@H]1C[C@H]1c1ccccc1` [Example 21, 1-[[2-(difluoromethyl)pyridin-4-yl]methyl]-3-[(1R,2S)-2-phenylcyclopropyl]urea], the EC50 turned out to be 3.2 µM. Besides, the Emax under setting [1] came to 72%.
`O=C(NCc1ccnc(OCC(F)F)c1)N[C@@H]1C[C@H]1c1ccccc1` [Example 35, 1-[[2-(2,2-difluoroethoxy)pyridin-4-yl]methyl]-3-[(1R,2S)-2-phenylcyclopropyl]urea]: the 50% effective concentration (EC50) stood at 0.2 µM. Under setting [1], the maximum response (Emax) was 66%.
For `C[C@H]1[C@H](NC(=O)NCc2ccnc(OC(F)F)c2)C1(F)F` (racemic) [Example 42, 1-[[2-(difluoromethoxy)pyridin-4-yl]methyl]-3-[rac-(1R,3R)-2,2-difluoro-3-methylcyclopropyl]urea], the 50% effective concentration (EC50) was 1.03 µM. Besides, the maximal effect (Emax) under setting [1] worked out at 58%.
With `O=C(NCc1ccnc(OC2CCOCC2)c1)NC1CC1C1CCCCC1` (centres unmarked) [Example 45, 1-(2-cyclohexylcyclopropyl)-3-[[2-(oxan-4-yloxy)pyridin-4-yl]methyl]urea], the EC50 amounted to 0.88 µM. Under setting [1], the maximum response (Emax) was 77%.
For `C[C@@H]1C[C@H]1NC(=O)NCc1ccnc(OC(F)F)c1` (racemic) [Example 46, 1-[[2-(difluoromethoxy)pyridin-4-yl]methyl]-3-[rac-(1R,2R)-2-methylcyclopropyl]urea] the same measures were 0.9 µM and 51%.
In the case of `O=C(NCc1ccnc(OC2CCC2)c1)N[C@@H]1C[C@H]1c1ccccc1` [Example 25, 1-[(2-cyclobutyloxypyridin-4-yl)methyl]-3-[(1R,2S)-2-phenylcyclopropyl]urea], the EC50 is 1.05 µM. The Emax under setting [1] is 60%.
On to `COc1cc([C@H](C)NC(=O)N[C@@H]2C[C@H]2c2ccccc2)ccn1` [Example 29, 1-[(1S)-1-(2-methoxypyridin-4-yl)ethyl]-3-[(1R,2S)-2-phenylcyclopropyl]urea], for which the EC50 turned out to be 0.52 µM. Also, the maximal response (Emax) under setting [1] was found to be 47%.
Consider `O=C(NCc1ccnc(OCF)c1)N[C@@H]1C[C@H]1c1ccccc1` [Example 37], for which the concentration giving a half-maximal response (EC50) worked out at 0.91 µM. The Emax under setting [1] came to 74%.
For `O=C(NCc1ccnc(Cl)c1)N[C@@H]1C[C@H]1C1CCCCC1` (racemic) [Example 17, 1-[(2-chloropyridin-4-yl)methyl]-3-[rac-(1R,2S)-2-cyclohexylcyclopropyl]urea] the same measures were 1.76 µM and 61%.
For `O=C(NCc1ccnc(OC(F)(F)F)c1)N[C@@H]1C[C@H]1c1ccccc1` [Example 28, 1-[(1R,2S)-2-phenylcyclopropyl]-3-[[2-(trifluoromethoxy)pyridin-4-yl]methyl]urea], the concentration for a half-maximal effect (EC50) amounted to 1.36 µM. Under setting [1], the maximal response (Emax) is 62%.
Regarding `O=C(NCc1ccnc(-c2cnsc2)c1)N[C@@H]1C[C@H]1C1CCCCC1` (racemic) [Example 40, 1-[rac-(1R,2S)-2-cyclohexylcyclopropyl]-3-[[2-(1,2-thiazol-4-yl)pyridin-4-yl]methyl]urea], the EC50 was 0.78 µM. The Emax under setting [1] is 57%.
The like results for `O=C(NCc1ccnc(OC(F)F)c1)N[C@@H]1C[C@H]1C1CCCO1` (mixture of isomers) [Example 43, 1-[[2-(difluoromethoxy)pyridin-4-yl]methyl]-3-[rac-(1R,2R)-2-(oxolan-2-yl)cyclopropyl]urea] were, in that order, 8.01 µM and 61%.
With `N#Cc1cccc(CNC(=O)N[C@@H]2C[C@H]2c2ccccc2)n1` [Example 18, 1-[(6-cyanopyridin-2-yl)methyl]-3-[(1R,2S)-2-phenylcyclopropyl]urea], the half-maximal effective concentration (EC50) came to 3.02 µM. Besides, under setting [1], the Emax was 62%.
As for `O=C(NCc1ccnc(-n2ccnc2)c1)N[C@@H]1C[C@H]1c1ccccc1` [Example 27, 1-[(2-imidazol-1-ylpyridin-4-yl)methyl]-3-[(1R,2S)-2-phenylcyclopropyl]urea], the EC50 was 2.84 µM. For the same molecule, the maximum response (Emax) under setting [1] is 45%.
On to `O=C(NCc1ccnc(-n2ccc(C(F)(F)F)n2)c1)N[C@@H]1C[C@H]1c1ccccc1` [Example 39, 1-[(1R,2S)-2-phenylcyclopropyl]-3-[[2-[3-(trifluoromethyl)pyrazol-1-yl]pyridin-4-yl]methyl]urea], for which the EC50 was found to be 0.07 µM. Moreover, the Emax under setting [1] came out at 78%.
`C[C@@]1(NC(=O)NCc2ccnc(OC(F)F)c2)C[C@H]1c1ccccc1` (racemic) [Example 36, 1-[[2-(difluoromethoxy)pyridin-4-yl]methyl]-3-[rac-(1R,2S)-1-methyl-2-phenylcyclopropyl]urea]: the concentration giving a half-maximal response (EC50) was determined as 0.12 µM. Moreover, under setting [1], the Emax was 69%.
